# Results as given in patent US9388195B2, “Heterocyclic compound” (Takeda Pharmaceutical Company Limited, priority 2010, dated 2016).
# Where a name gives a salt, the structure may show the parent alone.
# Biological target: T1, Cdc7/Dbf4 complex (Homo sapiens, UniProt O00311)
# T1 construct: Full-length Cdc7 co-expressed with full-length Dbf4; purchased Carna Biosciences (Kobe)
# Test: Measurement of Cdc7 kinase inhibitory activity (Transcreener ADP HTRF assay)
# Type: biochemical
# Conditions: read-out: inhibitory rate (%) at 1 μM
# Method: Full-length Cdc7 co-expressed with full-length Dbf4 was purchased from Carna Biosciences (Kobe). The enzyme activity of Cdc7/Dbf4 complex was detected by homogeneous time-resolved fluorescence method Transcreener ADP assay (Cisbio Inc., MA, U.S.A.). […] Free ADP produced by ATP hydrolysis was detected by Eu^3+-Cryptate-labeled anti-ADP monoclonal antibody competitively with d2-labeled ADP, and the production amount thereof was measured. The obtained time-resolved fluorescence resonance energy transfer signal was measured by EnVision (Perkin Elmer Inc., MA, U.S.A.). The inhibitory rate (%) of the test compound to Cdc7 was calculated by the following formula. Inhibitory rate(%)=(1−(count of test compound-blank)[…](control-blank))×100
# The count of the Cdc7/Dbf4 reaction mixture under compound-free conditions was taken as the control, and that under compound-free and Cdc7/Dbf4-free conditions was taken as the blank.
# T1 sequence (O00311 whole entry): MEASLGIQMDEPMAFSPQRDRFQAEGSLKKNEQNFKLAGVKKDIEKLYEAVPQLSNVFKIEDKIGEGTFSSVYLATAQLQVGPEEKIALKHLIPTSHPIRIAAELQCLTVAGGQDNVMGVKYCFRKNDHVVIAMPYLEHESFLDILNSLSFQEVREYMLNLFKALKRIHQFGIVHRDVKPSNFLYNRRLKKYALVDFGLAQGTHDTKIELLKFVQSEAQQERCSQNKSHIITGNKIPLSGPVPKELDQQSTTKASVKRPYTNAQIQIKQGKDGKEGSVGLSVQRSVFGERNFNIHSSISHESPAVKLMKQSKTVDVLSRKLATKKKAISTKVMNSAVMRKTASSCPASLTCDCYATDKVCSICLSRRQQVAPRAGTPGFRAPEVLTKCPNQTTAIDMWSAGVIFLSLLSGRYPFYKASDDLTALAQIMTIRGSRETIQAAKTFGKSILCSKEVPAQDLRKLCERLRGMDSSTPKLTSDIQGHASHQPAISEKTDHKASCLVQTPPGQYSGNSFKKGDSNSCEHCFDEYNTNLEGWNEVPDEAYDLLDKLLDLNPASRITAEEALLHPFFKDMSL
# T1 sequence (Q9UBU7 whole entry partner): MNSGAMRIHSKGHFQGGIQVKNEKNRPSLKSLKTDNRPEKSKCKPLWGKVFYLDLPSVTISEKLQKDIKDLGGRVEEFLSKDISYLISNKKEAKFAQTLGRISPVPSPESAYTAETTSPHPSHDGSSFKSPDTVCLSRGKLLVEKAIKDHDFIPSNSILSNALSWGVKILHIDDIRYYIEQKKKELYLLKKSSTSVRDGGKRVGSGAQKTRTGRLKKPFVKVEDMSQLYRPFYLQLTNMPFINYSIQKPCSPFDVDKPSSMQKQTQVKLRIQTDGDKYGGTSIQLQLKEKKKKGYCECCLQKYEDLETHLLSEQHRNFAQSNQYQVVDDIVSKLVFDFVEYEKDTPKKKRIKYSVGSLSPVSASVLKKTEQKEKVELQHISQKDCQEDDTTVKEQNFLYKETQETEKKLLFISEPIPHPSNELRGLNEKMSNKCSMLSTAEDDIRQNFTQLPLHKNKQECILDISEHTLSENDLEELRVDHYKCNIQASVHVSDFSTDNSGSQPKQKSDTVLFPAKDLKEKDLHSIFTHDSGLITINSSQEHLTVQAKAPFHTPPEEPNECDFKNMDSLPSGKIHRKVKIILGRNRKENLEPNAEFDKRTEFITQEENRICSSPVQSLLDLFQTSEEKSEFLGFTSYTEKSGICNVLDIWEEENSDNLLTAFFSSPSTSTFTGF
row,Compound,inhibition at 1 µM
1,"Cc1[nH]ncc1-c1cc2nc([C@@H]3C[C@H](C)CN3)[nH]c(=O)c2s1 [Example 92, 6-(5-methyl-1H-pyrazol-4-yl)-2-[(2S,4S)-4-methylpyrrolidin-2-yl]thieno[3,2-d]pyrimidin-4 (3H)-one dihydrochloride]",108%
2,"Cc1[nH]ncc1-c1cc2nc([C@@H]3CCCN3C)[nH]c(=O)c2s1 [Example 88, 6-(5-methyl-1H-pyrazol-4-yl)-2-[(2S)-1-methylpyrrolidin-2-yl]thieno[3,2-d]pyrimidin-4 (3H)-one dihydrochloride]",101%
3,"Cc1[nH]ncc1-c1cc2nc([C@@H]3CCCCCN3)[nH]c(=O)c2s1 [Example 102, 2-[(2S)-azepan-2-yl]-6-(5-methyl-1H-pyrazol-4-yl)thieno[3,2-d]pyrimidin-4 (3H)-one]",95.9%
4,"Cc1[nH]ncc1-c1cc2nc([C@H]3CCCCCN3)[nH]c(=O)c2s1 [Example 101, 2-[(2R)-azepan-2-yl]-6-(5-methyl-1H-pyrazol-4-yl)thieno[3,2-d]pyrimidin-4 (3H)-one]",96.2%
5,"Cc1[nH]ncc1-c1cc2nc([C@@H]3CCN3)[nH]c(=O)c2s1 [Example 77, 2-[(2S)-azetidin-2-yl]-6-(5-methyl-1H-pyrazol-4-yl)thieno[3,2-d]pyrimidin-4 (3H)-one]",108%
6,"Cc1[nH]ncc1-c1cc2nc(C34CC(CN3)C4)[nH]c(=O)c2s1 [Example 148, 2-(2-azabicyclo[2.1.1]hex-1-yl)-6-(5-methyl-1H-pyrazol-4-yl)thieno[3,2-d]pyrimidin-4 (3H)-one hydrochloride]",102%
7,"Cc1[nH]ncc1-c1cc2nc(C3CCCCCN3)[nH]c(=O)c2s1 (centres unmarked) [Example 79, 2-(azepan-2-yl)-6-(5-methyl-1H-pyrazol-4-yl)thieno[3,2-d]pyrimidin-4 (3H)-one]",93.3%
8,"Cc1[nH]ncc1-c1cc2nc([C@@H]3CCC(C)(C)N3)[nH]c(=O)c2s1 [Example 76, 2-[(2S)-5,5-dimethylpyrrolidin-2-yl]-6-(5-methyl-1H-pyrazol-4-yl)thieno[3,2-d]pyrimidin-4 (3H)-one]",106%

# Same assay, conditions: read-out: inhibitory rate (%) at 1 μM, test compound 1 μM; Cdc7/Dbf4, 1.0 μm ATP, 10 μg/ml MCM2
row,Compound,inhibition at 1 µM
1,"Cc1[nH]ncc1-c1cc2nc(C3CC=CCN3)[nH]c(=O)c2s1 (centres unmarked) [Example 136, 6-(5-methyl-1H-pyrazol-4-yl)-2-(1,2,3,6-tetrahydropyridin-2-yl)thieno[3,2-d]pyrimidin-4 (3H)-one dihydrochloride]",91%
2,"Cc1[nH]ncc1-c1cc2nc([C@H]3CCCCN3)[nH]c(=O)c2s1 [Example 85, 6-(5-methyl-1H-pyrazol-4-yl)-2-[(2R)-piperidin-2-yl]thieno[3,2-d]pyrimidin-4 (3H)-one dihydrochloride]",103%
3,"Cc1[nH]ncc1-c1cc2nc([C@]3(C)CCCN3)[nH]c(=O)c2s1 [Example 103, 6-(5-methyl-1H-pyrazol-4-yl)-2-[(2S)-2-methylpyrrolidin-2-yl]thieno[3,2-d]pyrimidin-4 (3H)-one dihydrochloride]",96.7%
4,"Cc1[nH]ncc1-c1cc2nc(C3(C)CCCN3)[nH]c(=O)c2s1 (centres unmarked) [Example 82, 6-(5-methyl-1H-pyrazol-4-yl)-2-(2-methylpyrrolidin-2-yl)thieno[3,2-d]pyrimidin-4 (3H)-one dihydrochloride]",105%

# Same assay, conditions: test compound 1 μM; Cdc7/Dbf4, 1.0 μm ATP, 10 μg/ml MCM2; 1 µM
row,Compound,inhibitory rate (%) at 1 μM
1,"Cc1[nH]ncc1-c1cc2nc([C@@H]3CCCCN3)[nH]c(=O)c2s1 [Example 174, 6-(5-methyl-1H-pyrazol-4-yl)-2-[(2S)-piperidin-2-yl]thieno[3,2-d]pyrimidin-4 (3H)-one]",104%

# Same assay, conditions: test compound 1 μM; Cdc7/Dbf4, 1.0 μm ATP, 10 μg/ml MCM2; hydrochloride, 1 µM
row,Compound,inhibitory rate (%) at 1 μM
1,"Cc1[nH]ncc1-c1cc2nc([C@@H]3CCCCN3)[nH]c(=O)c2s1 [Example 172, 6-(5-methyl-1H-pyrazol-4-yl)-2-[(2S)-piperidin-2-yl]thieno[3,2-d]pyrimidin-4 (3H)-one hydrochloride]",102%

# Same assay, conditions: test compound 1 μM; Cdc7/Dbf4, 1.0 μm ATP, 10 μg/ml MCM2; read-out: inhibitory rate (%) at 1 μM
row,Compound,inhibition at 1 µM
1,"Cc1[nH]ncc1-c1cc2nc([C@H]3NC4CCC3CC4)[nH]c(=O)c2s1 [Example 108, 2-[(3S)-2-azabicyclo[2.2.2]oct-3-yl]-6-(5-methyl-1H-pyrazol-4-yl)thieno[3,2-d]pyrimidin-4 (3H)-one dihydrochloride]",103%
2,"O=c1[nH]c(CN2CCCC2)nc2cc(-c3cn[nH]c3C(F)(F)F)sc12 [Example 143, 2-(pyrrolidin-1-ylmethyl)-6-[5-(trifluoromethyl)-1H-pyrazol-4-yl]thieno[3,2-d]pyrimidin-4 (3H)-one]",122%
3,"Cc1[nH]ncc1-c1cc2nc(CN3CC=CCC3)[nH]c(=O)c2s1 [Example 75, 2-(3,6-dihydropyridin-1(2H)-ylmethyl)-6-(5-methyl-1H-pyrazol-4-yl)thieno[3,2-d]pyrimidin-4 (3H)-one]",107%
4,"Cc1[nH]ncc1-c1cc2nc(CN3CC[C@H](F)C3)[nH]c(=O)c2s1 [Example 4, 2-{[(3S)-3-fluoropyrrolidin-1-yl]methyl}-6-(5-methyl-1H-pyrazol-4-yl)thieno[3,2-d]pyrimidin-4 (3H)-one]",102%
5,"Cc1[nH]ncc1-c1cc2nc([C@@H]3C[C@@H]4CCCC[C@@H]4N3)[nH]c(=O)c2s1 [Example 78, 6-(5-methyl-1H-pyrazol-4-yl)-2-[(2S,3aS,7aS)-octahydro-1H-indol-2-yl]thieno[3,2-d]pyrimidin-4 (3H)-one]",86.2%
6,"Cc1[nH]ncc1-c1cc2nc([C@H]3NC[C@H]4C[C@H]43)[nH]c(=O)c2s1 [Example 113, 2-[(1R,2S,5S)-3-azabicyclo[3.1.0]hex-2-yl]-6-(5-methyl-1H-pyrazol-4-yl)thieno[3,2-d]pyrimidin-4 (3H)-one dihydrochloride]",124%
7,"CCc1[nH]ncc1-c1cc2nc([C@@H]3CCCCN3)[nH]c(=O)c2s1 [Example 162, 6-(5-ethyl-1H-pyrazol-4-yl)-2-[(2S)-piperidin-2-yl]thieno[3,2-d]pyrimidin-4 (3H)-one dihydrochloride]",104%
8,"Cc1[nH]ncc1-c1cc2nc(C3CCCC3N)[nH]c(=O)c2s1 (single isomer, unassigned) [Example 137, 2-(2-aminocyclopentyl)-6-(5-methyl-1H-pyrazol-4-yl)thieno[3,2-d]pyrimidin-4 (3H)-one dihydrochloride]",97%
9,"CNCc1nc2cc(-c3cn[nH]c3C)sc2c(=O)[nH]1 [Example 133, 2-[(methylamino)methyl]-6-(5-methyl-1H-pyrazol-4-yl)thieno[3,2-d]pyrimidin-4 (3H)-one dihydrochloride]",107%
10,"Cc1[nH]ncc1-c1cc2nc(C3C[C@@H]4CCC[C@@H]4N3)[nH]c(=O)c2s1 (stereo partly drawn) [Example 123, 6-(5-methyl-1H-pyrazol-4-yl)-2-[(3aS,6aS)-octahydrocyclopenta[b]pyrrol-2-yl]thieno[3,2-d]pyrimidin-4 (3H)-one]",97%
11,"Cc1[nH]ncc1-c1cc2nc([C@@H]3C[C@@H](F)CN3)[nH]c(=O)c2s1 [Example 23, 2-[(2S,4R)-4-fluoropyrrolidin-2-yl]-6-(5-methyl-1H-pyrazol-4-yl)thieno[3,2-d]pyrimidin-4 (3H)-one dihydrochloride]",98.4%
12,"Cc1[nH]ncc1-c1cc2nc([C@H]3CC4CCN3CC4)[nH]c(=O)c2s1 [Example 164, 2-[(2R)-1-azabicyclo[2.2.2]oct-2-yl]-6-(5-methyl-1H-pyrazol-4-yl)thieno[3,2-d]pyrimidin-4 (3H)-one trifluoroacetate]",101%
13,"Cc1[nH]ncc1-c1cc2nc(C3CCCC3N)[nH]c(=O)c2s1 (centres unmarked) [Example 139, 2-(2-aminocyclopentyl)-6-(5-methyl-1H-pyrazol-4-yl)thieno[3,2-d]pyrimidin-4 (3H)-one dihydrochloride]",106%
14,"Cc1[nH]ncc1-c1cc2nc(C(C)(C)N)[nH]c(=O)c2s1 [Example 135, 2-(1-amino-1-methylethyl)-6-(5-methyl-1H-pyrazol-4-yl)thieno[3,2-d]pyrimidin-4 (3H)-one dihydrochloride]",111%
15,"Cc1[nH]ncc1-c1cc2nc([C@]34C[C@H]3CCN4)[nH]c(=O)c2s1 [Example 157, 2-[(1S,5R)-2-azabicyclo[3.1.0]hex-1-yl]-6-(5-methyl-1H-pyrazol-4-yl)thieno[3,2-d]pyrimidin-4 (3H)-one dihydrochloride]",92%
16,"Cc1[nH]ncc1-c1cc2nc([C@H]3NC[C@@H]4C[C@@H]43)[nH]c(=O)c2s1 (relative stereo) [Example 110, 2-[(1S*,2S*,5R*)-3-azabicyclo[3.1.0]hex-2-yl]-6-(5-methyl-1H-pyrazol-4-yl)thieno[3,2-d]pyrimidin-4 (3H)-one dihydrochloride]",100%
17,"O=c1[nH]c(C23CC(CN2)C3)nc2cc(-c3cn[nH]c3C(F)(F)F)sc12 [Example 165, 2-(2-azabicyclo[2.1.1]hex-1-yl)-6-[5-(trifluoromethyl)-1H-pyrazol-4-yl]thieno[3,2-d]pyrimidin-4 (3H)-one dihydrochloride]",105%
18,"Cc1[nH]ncc1-c1cc2nc([C@H]3CCCC[C@@H]3N)[nH]c(=O)c2s1 (relative stereo) [Example 129, 2-[(1R*,2R*)-2-aminocyclohexyl]-6-(5-methyl-1H-pyrazol-4-yl)thieno[3,2-d]pyrimidin-4 (3H)-one dihydrochloride]",108%
